In patent US20240199546A1, “INHIBITORS OF SOLUTE CARRIER FAMILY 6A MEMBER 19 (SLC6A19) AND METHODS OF USE THEREOF” (Maze Therapeutics, Inc., priority 2022, published 2024):

Biological target: T1, human SLC6A19 and TMEM27 (Homo sapiens, UniProt Q695T7)
T1 construct: expressed in transfected cells
T1 sequence (Q695T7 1-634): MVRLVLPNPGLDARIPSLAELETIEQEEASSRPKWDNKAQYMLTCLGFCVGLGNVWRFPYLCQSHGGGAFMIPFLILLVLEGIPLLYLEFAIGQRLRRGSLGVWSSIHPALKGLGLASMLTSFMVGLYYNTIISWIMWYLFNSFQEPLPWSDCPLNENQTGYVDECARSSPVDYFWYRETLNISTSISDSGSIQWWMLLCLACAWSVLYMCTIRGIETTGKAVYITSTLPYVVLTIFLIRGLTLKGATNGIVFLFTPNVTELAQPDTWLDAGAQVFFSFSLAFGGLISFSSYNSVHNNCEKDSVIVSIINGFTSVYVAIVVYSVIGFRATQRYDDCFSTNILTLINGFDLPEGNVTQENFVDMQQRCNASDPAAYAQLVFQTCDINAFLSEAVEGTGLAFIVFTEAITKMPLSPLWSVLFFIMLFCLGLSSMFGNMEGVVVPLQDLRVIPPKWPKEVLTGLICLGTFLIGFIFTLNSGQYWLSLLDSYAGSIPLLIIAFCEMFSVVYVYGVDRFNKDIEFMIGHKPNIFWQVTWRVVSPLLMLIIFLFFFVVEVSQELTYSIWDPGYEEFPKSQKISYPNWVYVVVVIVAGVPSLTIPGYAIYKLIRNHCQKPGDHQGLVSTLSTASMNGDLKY
T1 sequence (Q9HBJ8 15-222 partner): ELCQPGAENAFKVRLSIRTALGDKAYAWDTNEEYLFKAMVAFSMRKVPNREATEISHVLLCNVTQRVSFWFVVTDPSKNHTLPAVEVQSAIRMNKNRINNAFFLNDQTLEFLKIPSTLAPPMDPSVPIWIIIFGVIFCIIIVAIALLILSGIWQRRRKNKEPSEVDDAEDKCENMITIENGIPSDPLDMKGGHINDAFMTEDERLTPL
Assay: Radiolabelled (3H) leucine uptake in CHO cells with doxycycline-inducible expression of human SLC6A19 and TMEM27 (Example B-1)
Type: cell-based
Conditions: CHO cells with doxycycline-inducible expression of human SLC6A19 and TMEM27, read-out: SLC6A19_Radioligand Uptake Assay IC50
Procedure, shortened: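 CHO cells were induced with doxycycline for 18 h at 37 °C, washed in HBSS, then exposed to compounds for 1 h: 8-point, 3-fold dilutions in duplicate, 0.5% DMSO final. Uptake measured by scintillation counting after 2 h shaking. Activity normalized with positive control as 0% and DMSO as 100%.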

Row | IC50 | SMILES
1 | 1930 nM | CC1(C(=O)NCc2cc3cc(Cl)c(OCC4CC(F)(F)C4)cc3[nH]2)CC1 [Compound 353, N-((5-chloro-6-((3,3-difluorocyclobutyl)methoxy)-1H-indol-2-yl)methyl)-1-methylcyclopropane-1-carboxamide]
2 | > 5280 nM | CC1(C(=O)NCc2cc3ccc(OCc4cc(C(F)(F)F)on4)cc3[nH]2)CC1 [Compound 354, 1-methyl-N-((6-((5-(trifluoromethyl)isoxazol-3-yl)methoxy)-1H-indol-2-yl)methyl)cyclopropane-1-carboxamide]
3 | 6600 nM | CC(=O)NCc1cc2cc(Cl)c(OCC3COC3)cc2[nH]1 [Compound 355, N-((5-chloro-6-(oxetan-3-ylmethoxy)-1H-indol-2-yl)methyl)acetamide]
4 | 389 nM | CC1(C(=O)NCc2cc3cc(Cl)c(OCc4cnccc4F)cc3[nH]2)CC1 [Compound 356, N-((5-chloro-6-((4-fluoropyridin-3-yl)methoxy)-1H-indol-2-yl)methyl)-1-methylcyclopropane-1-carboxamide]
5 | 319 nM | O=C(NCc1cc2cc(F)c(OCc3cocn3)cc2[nH]1)N1CCC1 [Compound 358, N-((5-fluoro-6-(oxazol-4-ylmethoxy)-1H-indol-2-yl)methyl)azetidine-1-carboxamide]
6 | 231 nM | CN(C(=O)NCc1cc2cc(Cl)c(OCc3cscn3)cc2[nH]1)C1CC1 [Compound 359, 3-((5-chloro-6-(thiazol-4-ylmethoxy)-1H-indol-2-yl)methyl)-1-cyclopropyl-1-methylurea]
7 | 432 nM | C[C@H]1CCN1C(=O)NCc1cc2cc(Cl)c(OCc3cscn3)cc2[nH]1 [Compound 360, (S)-N-((5-chloro-6-(thiazol-4-ylmethoxy)-1H-indol-2-yl)methyl)-2-methylazetidine-1-carboxamide]
8 | 286 nM | C[C@@H]1CCN1C(=O)NCc1cc2cc(Cl)c(OCc3cscn3)cc2[nH]1 [Compound 361, (R)-N-((5-chloro-6-(thiazol-4-ylmethoxy)-1H-indol-2-yl)methyl)-2-methylazetidine-1-carboxamide]
9 | 983 nM | C[C@H]1CCN1C(=O)NCc1cc2cc(Cl)c(OCc3ccon3)cc2[nH]1 [Compound 362, (S)-N-((5-chloro-6-(isoxazol-3-ylmethoxy)-1H-indol-2-yl)methyl)-2-methylazetidine-1-carboxamide]
10 | 332 nM | C[C@@H]1CCN1C(=O)NCc1cc2cc(Cl)c(OCc3ccon3)cc2[nH]1 [Compound 363, (R)-N-((5-chloro-6-(isoxazol-3-ylmethoxy)-1H-indol-2-yl)methyl)-2-methylazetidine-1-carboxamide]
11 | 690 nM | COC1CN(C(=O)NCc2cc3cc(Cl)c(OCc4cscn4)cc3[nH]2)C1 [Compound 364, N-((5-chloro-6-(thiazol-4-ylmethoxy)-1H-indol-2-yl)methyl)-3-methoxyazetidine-1-carboxamide]
12 | 1240 nM | O=C(NCc1cc2cc(Cl)c(OCc3cscn3)cc2[nH]1)N1CC(O)C1 [Compound 367, N-((5-chloro-6-(thiazol-4-ylmethoxy)-1H-indol-2-yl)methyl)-3-hydroxyazetidine-1-carboxamide]
13 | > 5480 nM | O=C(NCc1cc2cc(Cl)c(OCc3cscn3)cc2[nH]1)N1CC(CO)C1 [Compound 368, N-((5-chloro-6-(thiazol-4-ylmethoxy)-1H-indol-2-yl)methyl)-3-(hydroxymethyl)azetidine-1-carboxamide]
14 | 125 nM | CCNC(=O)NCc1cc2cc(Cl)c(OCc3cc(C)no3)cc2[nH]1 [Compound 369, 1-((5-chloro-6-((3-methylisoxazol-5-yl)methoxy)-1H-indol-2-yl)methyl)-3-ethylurea]
15 | 486 nM | Cc1cc(COc2cc3[nH]c(CNC(=O)N4CC(F)(F)C4)cc3cc2Cl)on1 [Compound 370, N-((5-chloro-6-((3-methylisoxazol-5-yl)methoxy)-1H-indol-2-yl)methyl)-3,3-difluoroazetidine-1-carboxamide]
16 | 141 nM | Cc1cc(COc2cc3[nH]c(CNC(=O)NCCF)cc3cc2Cl)on1 [Compound 371, 1-((5-chloro-6-((3-methylisoxazol-5-yl)methoxy)-1H-indol-2-yl)methyl)-3-(2-fluoroethyl)urea]
17 | 253 nM | Cc1cc(COc2cc3[nH]c(CNC(=O)N4CC(F)C4)cc3cc2Cl)on1 [Compound 372, N-((5-chloro-6-((3-methylisoxazol-5-yl)methoxy)-1H-indol-2-yl)methyl)-3-fluoroazetidine-1-carboxamide]
18 | 412 nM | Cc1cc(COc2cc3[nH]c(CNC(=O)NCC(F)F)cc3cc2Cl)on1 [Compound 374, 1-((5-chloro-6-((3-methylisoxazol-5-yl)methoxy)-1H-indol-2-yl)methyl)-3-(2,2-difluoroethyl)urea]
19 | 2120 nM | Cc1cc(COc2cc3[nH]c(CNC(=O)N4CCC4C#N)cc3cc2Cl)on1 (stereo not drawn) [Compound 376, N-((5-chloro-6-((3-methylisoxazol-5-yl)methoxy)-1H-indol-2-yl)methyl)-2-cyanoazetidine-1-carboxamide]
20 | 847 nM | Cc1cc(COc2cc3[nH]c(CNC(=O)N4CCC(C(F)F)C4)cc3cc2Cl)on1 (stereo not drawn) [Compound 377, N-((5-chloro-6-((3-methylisoxazol-5-yl)methoxy)-1H-indol-2-yl)methyl)-3-(difluoromethyl)pyrrolidine-1-carboxamide]

More lines, now with the values behind:

Row | SMILES | IC50
21 | CC1(C(=O)NCc2cc3cc(Cl)c(OCCc4cccnc4)cc3[nH]2)CC1 [Compound 331, N-((5-chloro-6-(2-(pyridin-3-yl)ethoxy)-1H-indol-2-yl)methyl)-1-methylcyclopropane-1-carboxamide] | 452 nM
22 | COCCOc1cc2[nH]c(CNC(=O)C3(C)CC3)cc2cc1Cl [Compound 333, N-((5-chloro-6-(2-methoxyethoxy)-1H-indol-2-yl)methyl)-1-methylcyclopropane-1-carboxamide] | 206 nM
23 | CC1(C(=O)NCc2cc3cc(Cl)c(OCc4cccnn4)cc3[nH]2)CC1 [Compound 334, N-((5-chloro-6-(pyridazin-3-ylmethoxy)-1H-indol-2-yl)methyl)-1-methylcyclopropane-1-carboxamide] | 519 nM
24 | CC1(C(=O)NCc2cc3cc(Cl)c(OCCOC4CC4)cc3[nH]2)CC1 [Compound 335, N-((5-chloro-6-(2-cyclopropoxyethoxy)-1H-indol-2-yl)methyl)-1-methylcyclopropane-1-carboxamide] | 126 nM
25 | CC1(C(=O)NCc2cc3cc(Cl)c(OCC4COC4)cc3[nH]2)CC1 [Compound 336, N-((5-chloro-6-(oxetan-3-ylmethoxy)-1H-indol-2-yl)methyl)-1-methylcyclopropane-1-carboxamide] | 1190 nM
26 | COc1ccc(COc2cc3[nH]c(CNC(=O)C4(C)CC4)cc3cc2Cl)nn1 [Compound 337, N-((5-chloro-6-((6-methoxypyridazin-3-yl)methoxy)-1H-indol-2-yl)methyl)-1-methylcyclopropane-1-carboxamide] | 1190 nM
27 | CC(=O)NCc1cc2cc(Cl)c(OCCOC(F)(F)F)cc2[nH]1 [Compound 338, N-((5-chloro-6-(2-(trifluoromethoxy)ethoxy)-1H-indol-2-yl)methyl)acetamide] | 159 nM
28 | Cc1cc(COc2cc(F)c3cc(CNC(=O)C4(C)CC4)[nH]c3c2)on1 [Compound 339, N-((4-fluoro-6-((3-methylisoxazol-5-yl)methoxy)-1H-indol-2-yl)methyl)-1-methylcyclopropane-1-carboxamide] | 328 nM
29 | Cc1cc(COc2cc(F)c3cc(CNC(=O)C4(C)CC4)[nH]c3c2)no1 [Compound 340, N-((4-fluoro-6-((5-methylisoxazol-3-yl)methoxy)-1H-indol-2-yl)methyl)-1-methylcyclopropane-1-carboxamide] | 277 nM
30 | [2H]C([2H])(NC(C)=O)c1cc2cc(Cl)c(OCc3cc(C)no3)cc2[nH]1 [Compound 345, N-((5-chloro-6-((3-methylisoxazol-5-yl)methoxy)-1H-indol-2-yl)methyl-d2)acetamide] | 62.7 nM
31 | CSc1cc2cc(CNC(=O)C3(C)CC3)[nH]c2cc1OCc1cscn1 [Compound 348, 1-methyl-N-((5-(methylthio)-6-(thiazol-4-ylmethoxy)-1H-indol-2-yl)methyl)cyclopropane-1-carboxamide] | 516 nM
32 | CC(=O)NCc1cc2ccc(OCc3cc(C)no3)cc2[nH]1 [Compound 349, N-((6-((3-methylisoxazol-5-yl)methoxy)-1H-indol-2-yl)methyl)acetamide] | 2930 nM
33 | CC1(C(=O)NCc2cc3cc(Cl)c(OCc4ccc5cc[nH]c5c4)cc3[nH]2)CC1 [Compound 350, N-((6-((1H-indol-6-yl)methoxy)-5-chloro-1H-indol-2-yl)methyl)-1-methylcyclopropane-1-carboxamide] | > 8380 nM
